Experimental findings from patent US8071586B2, “Heterocyclyl compounds” (Hoffmann-La Roche Inc., priority 2008, dated 2011) are described below.

The structures appear in SMILES notation.

For the assay, the target named is T1, human chemokine receptor 2 isoform B (CCR2) (Homo sapiens, UniProt P41597).
T1 sequence (P41597 1-360 isoform P41597-2): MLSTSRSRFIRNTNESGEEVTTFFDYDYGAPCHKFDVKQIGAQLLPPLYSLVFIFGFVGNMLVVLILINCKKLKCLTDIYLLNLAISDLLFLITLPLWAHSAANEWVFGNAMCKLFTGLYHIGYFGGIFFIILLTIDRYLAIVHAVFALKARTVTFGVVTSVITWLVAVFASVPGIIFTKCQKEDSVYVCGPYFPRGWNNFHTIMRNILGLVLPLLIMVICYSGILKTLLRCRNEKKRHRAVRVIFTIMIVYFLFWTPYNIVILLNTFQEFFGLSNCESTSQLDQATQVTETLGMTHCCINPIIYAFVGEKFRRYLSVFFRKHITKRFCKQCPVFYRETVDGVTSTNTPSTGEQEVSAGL
Kind of assay: Calcium mobilization assay (FLIPR, MCP-1 stimulated CHOK1-CCR2B-A5 cells). The class given is cell-based. As to conditions: Ca mobilisation assay, CCR2 antagonist activity, inhibition of MCP-1 induced calcium increase. A digest of the protocol: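 Fluo-4-loaded CHOK1 cells stably expressing human CCR2B were preincubated with compound 20-30 min at 30 °C in DMEM/Hepes/probenecid/0.1% BSA buffer with 0.5% DMSO, then challenged with […] MCP-1. FLIPR calcium signal (max minus basal) gave IC50; agonism also monitored.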
(In general: A change in cytosolic calcium serves as a functional read-out for many receptors and channels.)
With `CN(C)C(=O)C(CCN1CCC2(CC2)[C@H](O)C1)N1CCN(C(=O)Nc2cccc(Cl)c2)CCC1=O` (stereo partly drawn) [Example 10, (R,S)-4-[1-Dimethylcarbamoyl-3-((S)-4-hydroxy-6-aza-spiro[2.5]oct-6-yl)-propyl]-5-oxo-[1,4]diazepane-1-carboxylic acid (3-chloro-phenyl)-amide], the IC50 worked out at 780 nM.
As for `C[C@H]1C(=O)N(CCN2CCC3(CC3)[C@H](O)C2)CCN1C(=O)Nc1ccc(Cl)c(Cl)c1` [Example 104, (S)-4-[2-((S)-4-Hydroxy-6-aza-spiro[2.5]oct-6-yl)-ethyl]-2-methyl-3-oxo-piperazine-1-carboxylic acid (3,4-dichloro-phenyl)-amide], the figure is 382 nM; as for `C[C@H]1C(=O)N([C@@H](CCN2CCC3(CC3)[C@H](O)C2)COC(=O)c2ccccc2)CCN1C(=O)Nc1ccc(Cl)c(Cl)c1` [Example 118, Benzoic acid (S)-2-[(S)-4-(3,4-dichloro-phenylcarbamoyl)-3-methyl-2-oxo-piperazin-1-yl]-4-((S)-4-hydroxy-6-aza-spiro[2.5]oct-6-yl)-butyl ester], 3 nM.

As usually defined, the IC50 is the concentration that inhibits the measured activity by half.
